Measured values: US6107312A, “Thiopyridines for use in the control of helicobacter bacteria” (BYK Gulden Lomberg Chemische Fabrik GmbH, priority 1994, dated 2000)
In brackets after ≈: the same amount, converted by molar mass.

System: Helicobacter pylori
Experiment: activity against Helicobacter pylori (method of Iwahi et al., Columbia agar, growth period of 4 days)
Format: cell-based
Settings: Columbia agar (Oxoid); for MIC50: 96 h, read-out: Approximate MIC50

Compound | MIC50 | Approximate MIC50
Cc1c(SCc2ccco2)ccnc1CSc1nc2ccccc2n1S(C)(=O)=O [Compound 10, 2-{[[4-(2-Furylmethylthio)-3-methyl-2-pyridinyl]methyl]thio}-1-methylsulfonyl-benzimidazole] | ~0.5 µg/mL (≈ 1.12 µM) | –
CC(=O)n1c(SCc2nccc(SCc3ccco3)c2C)nc2ccccc21 [Compound 7, 1-Acetyl-2-{[[4-(2-furylmethylthio)-3-methyl-2-pyridinyl]methyl]thio}benzimidazole] | ~0.5 µg/mL (≈ 1.22 µM) | –
CCCC(=O)n1c(SCc2nccc(SCc3ccco3)c2C)nc2ccccc21 [Compound 9, 1-n-Butyroyl-2-{[[4-(2-furylmethylthio)-3-methyl-2-pyridinyl]methyl]thio}benzimidazole] | – | ~0.1 µg/mL
Cc1c(SCc2ccco2)ccnc1CSc1nc2cccnc2[nH]1 [Compound 1, 2-{[[4-(2-Furylmethylthio)-3-methyl-2-pyridinyl]methyl]thio}-1H-imidazo-[2,3-b]-pyridine] | ~0.1 µg/mL (≈ 0.271 µM) | –
C=CC(=O)n1c(SCc2nccc(SCc3ccco3)c2C)nc2ccccc21 [Compound 8, 1-Acryloyl-2-{[[4-(2-furylmethylthio)-3-methyl-2-pyridinyl]methyl]thio}benzimidazole] | ~0.1 µg/mL (≈ 0.237 µM) | –
